Assay results: US20020052323A1, “Quinoline-(C=O)-(multiple amino acids)-leaving group compounds for pharmaceutical compositions and reagents” (priority 2000, published 2002)

Key:
caspase 1 = target: T1, caspase 1 (Homo sapiens, UniProt P29466); assay: Caspase inhibition assay, AcYVAD-AFC substrate; type: biochemical; conditions: from figure, antilog of log concentration; read-out: IC50 caspase 1
T1 sequence (P29466 120-297 limits assumed): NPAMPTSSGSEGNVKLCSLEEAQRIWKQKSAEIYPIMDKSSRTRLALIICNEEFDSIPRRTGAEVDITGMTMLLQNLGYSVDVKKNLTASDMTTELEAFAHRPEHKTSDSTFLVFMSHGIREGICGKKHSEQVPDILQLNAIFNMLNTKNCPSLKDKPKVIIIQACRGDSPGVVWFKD
T1 sequence (P29466 317-404 limits assumed): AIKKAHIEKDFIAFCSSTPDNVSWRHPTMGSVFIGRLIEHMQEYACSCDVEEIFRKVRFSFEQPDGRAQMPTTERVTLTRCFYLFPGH
Experimental: The determination of the IC50/μm was performed according to Gary Johnson, 9401 James Avenue, Suite No. 155, Bloomington, Minn. 55431.
Caspase Inhibition Assay:—Caspases are diluted in caspase buffer, 0.1 M HEPES, 10% sucrose 0.1% CHAPS and 10 mM DTT, pH 7.5. Caspases 1, 3, and 8 are used at a concentration of 144 U/well and caspase 9 is used at 4.8 U/well in a 96 well fluorometric plate.
Inhibitors are initially dissolved in DMSO at 10 mg/ml and further dilutions can be prepared in caspase buffer. The inhibitors are generally tested at concentrations ranging from 50 uM to 0.005 uM. These are usually prepared as 2 fold or 2.5 fold decreasing dilutions. The enzyme approximately 144 U in 120 ul caspase buffer is added to 380 ul caspase buffer containing the appropriate concentration on the inhibitor and incubated on ice for 15 min. The reactants 200 ul are then added to a black fluorimetric plate and incubated in the fluorometer at 37° C. for 30 min.
During the incubation period appropriate coumarin substrates are prepared by dilution in DMSO and caspase buffer to provide a 0.417 mM working stock. AcYVAD-AFC is used for caspase 1, AcDEVD-AFC for caspase 3. AcIETD-AFC for caspase 8 and Ac-LEHD-AFC for capsase 9. Twenty five microliters of the stock solution are added to 200 ul of the caspase and inhibitor test solutions to give a final substrate concentration of 0.046 mM.
The fluorometer is set to 400 nm excitation and 505 nm emission. The enzyme-inhibitor-substrate is allowed to incubate at for an additional twenty min. and the response is read as fluorescence units vs inhibitor concentration. The responses are plotted as percent of the maximum response (response in the absence of inhibitor) for each concentration of the inhibitor. The inhibitory activity for each inhibitor is described as the concentration of inhibitor that produces a 50% inhibition of the maximum response (IC50).

WEHI 231 cells [1] = assay: TUNEL analysis of Actinomycin D induced apoptosis, flow cytometry; type: cell-based, murine; conditions: for effective concentration in TUNEL test: blind test by TUNEL method, conclusions
Experimental: Flow Cytometry measures the percent of the cell population undergoing apoptosis. The effect of the inhibitors is identified as a reduction in the percent of the cell population undergoing apoptosis. Cell Type: WEHI 231 cells, murine immature B cells (suspension) Plate cells at 2×10^5/ml in 10 ml of media (Total 2×10^6 cells) Preincubate caspase inhibitors (Formula I) one hour before inducing apoptosis. […] Actinomycin D (ActD) stock is 1 μg/μl add 10 μl/10 ml)-Treat 4 h Process for Tunel Analysis. (See Table 2 below). […] Cell Processing for Tunel Analysis and Flow Cytometry. Centrifuge cells at 300× g for 5 min and aspirate supernatant. Resuspend cells in 5.0 ml of cold 1× PBS, Spin at 300× g, 5 min. Aspirate supernatant. […] Incubate for 15 min. on ice. […] Aspirate supernatant. […] Aspirate supernatant. […] Aspirate supernatant. Resuspend the cell in 300 μl of cold IX PBS, Transfer to a 1.5 ml tube. […] Store at −20° C. at least 18 hr prior to Tunel Labeling Fixed cells are stable for at least 30 days. Process fixed cells for Tunel using the Apo-BRDU kit from Pharmingen (San Diego, Calif.) following the manufacturer's instructions and analyze by flow cytometry.

WEHI 231 cells [2] = assay: TUNEL analysis, inhibitor alone (toxicity control); type: cell-based, murine; conditions: no ActD
Experimental: Flow Cytometry measures the percent of the cell population undergoing apoptosis. The effect of the inhibitors is identified as a reduction in the percent of the cell population undergoing apoptosis. Cell Type: WEHI 231 cells, murine immature B cells (suspension) Plate cells at 2×10^5/ml in 10 ml of media (Total 2×10^6 cells) Preincubate caspase inhibitors (Formula I) one hour before inducing apoptosis. […] [table] Process fixed cells for Tunel using the Apo-BRDU kit from Pharmingen (San Diego, Calif.) following the manufacturer's instructions and analyze by flow cytometry.

[3] = 1 μM inhibitor + ActD, WEHI 231, lower = greater inhibitory activity
[4] = 10 μM inhibitor + ActD, WEHI 231
[5] = 20 μM inhibitor + ActD, WEHI 231
[6] = 30 μM inhibitor + ActD, WEHI 231
[7] = 40 μM inhibitor + ActD, WEHI 231
[8] = 50 μM inhibitor + ActD, WEHI 231
[9] = 100 μM inhibitor + ActD, WEHI 231

| Compound | IC50 (caspase 1) [nM] | % non-viable cells (WEHI 231 cells [1]; [3]) [%] | % non-viable cells (WEHI 231 cells [1]; [4]) [%] | % non-viable cells (WEHI 231 cells [1]; [5]) [%] | % non-viable cells (WEHI 231 cells [1]; [6]) [%] | % non-viable cells (WEHI 231 cells [1]; [7]) [%] | % non-viable cells (WEHI 231 cells [1]; [8]) [%] | % non-viable cells (WEHI 231 cells [1]; [9]) [%] | effective concentration in TUNEL test (WEHI 231 cells [1]) | % non-viable cells, inhibitor alone (WEHI 231 cells [2]; 20 μM Inh alone) [%] | % non-viable cells, inhibitor alone (WEHI 231 cells [2]; 100 μM Inh alone) [%] |
| --- | --- | --- | --- | --- | --- | --- | --- | --- | --- | --- | --- |
| COC(=O)C[C@H](NC(=O)[C@@H](NC(=O)NCCc1c[nH]c2ccc(OC)cc12)C(C)C)C(=O)COc1c(F)cccc1F [melatonin-V-D(OMe)—CH2—O—Ph, 5-methoxytrytamine-carbonyl-Val Asp(OMe)-α-(2-oxy-2,6-Difluorophenyl) Methyl Ketone] | ~139 | – | – | – | – | – | – | – | – | – | – |
| CC(C)[C@H](NC(=O)c1ccc2ccccc2n1)C(=O)N[C@@H](CC(=O)O)C(=O)COc1ccccc1 [quinoline-(2-carbonyl)-V-D-CH2—OPh] | ~50 | – | – | – | – | – | – | – | – | – | – |
| Bzl-melatonin-V-D(OMe)—CH2—O—Ph | ~170 | – | – | – | – | – | – | – | – | – | – |
| HQ-Ala-Asp(OMe)—CH2—OPh [Inhibitor E^1] | – | 29 | 38 | 13 | 25 | 7 | 12 | 10 | 20 µM | 1 | 1 |
| MQ-Ala-Asp(OMe)—CH2—OPh [Inhibitor F^1] | – | 32 | 35 | 47 | 61 | 36 | 20 | 21 | not effective | 5 | 5 |
| Q-βAla-Asp(OMe)—CH2—OPh [Inhibitor C^1] | – | 88 | 87 | 72 | 71 | 78 | 68 | 3 | 100 µM | 3 | 4 |
| hydroxy Trp-TTP-V-D(OMe)—CH2—O—Ph | ~115 | – | – | – | – | – | – | – | – | – | – |
| hydroxy quinoline-(2-carbonyl)-VD-OPh | ~38 | – | – | – | – | – | – | – | – | – | – |
| indole-(2-carbonyl)-3-V-D(OMe)—CH2—O—Ph | ~460 | – | – | – | – | – | – | – | – | – | – |
